Target: T1, haematopoietic prostaglandin D synthase (H-PGDS) (Homo sapiens, UniProt O60760)
T1 construct: Full length human H-PGDS cDNA (Invitrogen Ultimate ORF 10H13026) was amplified by PCR; 6-His (N); TEV protease cleavage site (N); made in house; host or cells: E. coli BL21 (DE3*), vector pET22b+
Experiment: H-PGDS RapidFire high throughput mass spectrometry assay (conversion of PGH2 to PGD2)
Format: biochemical
Conditions: 10 nM H-PGDS, PGH2 formed in situ by COX-2 from arachidonic acid; read-out: Potency Range (mean pIC50) (converted)
How it was run: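 PGH2 substrate generated in situ by COX-2 (full-length human, FLAG-tagged, Sf9-expressed) from arachidonic acid at ˜10 μM, then converted by full-length human His-tagged H-PGDS (E. coli-expressed). RapidFire SPE–triple quadrupole MS measured PGD2 against PGF2α as substrate surrogate to give percent conversion.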

T1 sequence (O60760 whole entry): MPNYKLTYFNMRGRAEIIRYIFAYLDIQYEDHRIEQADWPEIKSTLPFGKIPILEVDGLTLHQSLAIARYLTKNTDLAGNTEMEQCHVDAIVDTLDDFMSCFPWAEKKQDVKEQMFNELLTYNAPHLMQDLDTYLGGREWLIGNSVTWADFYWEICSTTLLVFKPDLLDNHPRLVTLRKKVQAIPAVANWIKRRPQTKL

Structure (SMILES)	IC50 [nM]
CC(C)(O)c1cnc(NC(=O)[C@H]2C[C@H](Oc3cccc4cccnc34)C2)s1 [Example 204, (trans)-N-(5-(2-Hydroxypropan-2-yl)thiazol-2-yl)-3-(quinolin-8-yloxy)cyclobutanecarboxamide]	10 to 79.4
CN/C(=N\C#N)N1CC(NC(=O)[C@H]2C[C@H](Oc3cccc4scnc34)C2)C1 [Example 65, (trans)-3-(Benzo[d]thiazol-4-yloxy)-N-(1-((E)-N′-cyano-N-methylcarbamimidoyl)azetidin-3-yl)cyclobutanecarboxamide]	100 to 1000
CN(C)c1nccc(N2CC(NC(=O)[C@H]3C[C@H](Oc4cccc5scnc45)C3)C2)n1 [Example 76, (trans)-3-(Benzo[d]thiazol-4-yloxy)-N-(1-(2-(dimethylamino)pyrimidin-4-yl)azetidin-3-yl)cyclobutanecarboxamide]	100 to 1000
O=C(N[C@H]1CC[C@@H](NC(CO)C(F)(F)F)CC1)[C@H]1C[C@H](Oc2cc(F)cc3scnc23)C1 (mixture of isomers) [Example 125, Racemic (trans)-3-((6-Fluorobenzo[d]thiazol-4-yl)oxy)-N-((cis)-4-((1,1,1-trifluoro-3-hydroxypropan-2-yl)amino)cyclohexyl)cyclobutanecarboxamide]	10 to 79.4
COc1ccc(F)cc1O[C@H]1C[C@H](NC(=O)[C@H]2CC[C@H](C(C)(C)O)CC2)C1 [Example 162, (trans)-N-((trans)-3-(5-Fluoro-2-methoxyphenoxy)cyclobutyl)-4-(2-hydroxypropan-2-yl)cyclohexanecarboxamide]	100 to 1000
Cc1cnc(NC(=O)[C@H]2C[C@H](Oc3cccc4cccnc34)C2)o1 [Example 177, (trans)-N-(5-Methyloxazol-2-yl)-3-(quinolin-8-yloxy)cyclobutanecarboxamide]	10 to 79.4
Cc1ccc(N2CC(NC(=O)N3CC(Oc4cccc5scnc45)C3)C2)nc1 [Example 244]	10 to 79.4
O=C(NC1CN(c2ncc(F)cn2)C1)[C@H]1C[C@H](Oc2cc(F)cc3scnc23)C1 [Example 136, (trans)-3-((6-Fluorobenzo[d]thiazol-4-yl)oxy)-N-(1-(5-fluoropyrimidin-2-yl)azetidin-3-yl)cyclobutanecarboxamide]	10 to 79.4
O=C(NC1CN(c2ncccn2)C1)[C@H]1C[C@H](Oc2cc(F)cc3scnc23)C1 [Example 133, (trans)-3-((6-Fluorobenzo[d]thiazol-4-yl)oxy)-N-(1-(pyrimidin-2-yl)azetidin-3-yl)cyclobutanecarboxamide]	10 to 79.4
CCOC(=O)c1nnc(NC(=O)[C@H]2C[C@H](Oc3cccc4cccnc34)C2)[nH]1 [Example 176, Ethyl 5-((trans)-3-(quinolin-8-yloxy)cyclobutanecarboxamido)-4H-1,2,4-triazole-3-carboxylate]	100 to 1000
O=C(NC1CN(c2ncccn2)C1)[C@H]1C[C@H](Oc2cc(F)ccc2OC(F)F)C1 [Example 17, (trans)-3-(2-(Difluoromethoxy)-5-fluorophenoxy)-N-(1-(pyrimidin-2-yl)azetidin-3-yl)cyclobutanecarboxamide]	10 to 79.4
O=C(NC1CN(c2ncc(F)cn2)C1)N1CC(Oc2cccc3scnc23)C1 [Example 61, 3-(Benzo[d]thiazol-4-yloxy)-N-(1-(5-fluoropyrimidin-2-yl)azetidin-3-yl)azetidine-1-carboxamide]	10 to 79.4
O=C(N[C@H]1CC[C@H](NC(CO)C(F)(F)F)CC1)[C@H]1C[C@H](Oc2cc(F)cc3scnc23)C1 (mixture of isomers) [Example 126, Racemic (trans)-3-((6-Fluorobenzo[d]thiazol-4-yl)oxy)-N-((trans)-4-((1,1,1-trifluoro-3-hydroxypropan-2-yl)amino)cyclohexyl)cyclobutanecarboxamide]	10 to 79.4
CC(C)(O)[C@H]1C[C@H](NC(=O)[C@H]2C[C@H](Oc3cccc4cccnc34)C2)C1 [Example 223, (trans)-N-((trans)-3-(2-Hydroxypropan-2-yl)cyclobutyl)-3-(quinolin-8-yloxy)cyclobutanecarboxamide]	100 to 1000
O=C(NC1CN(c2cccnn2)C1)[C@H]1C[C@H](Oc2cccc3scnc23)C1 [Example 245, (trans)-3-(Benzo[d]thiazol-4-yloxy)-N-(1-(pyridazin-3-yl)azetidin-3-yl)cyclobutanecarboxamide]	10 to 79.4
Cc1cnc(N2CC(NC(=O)[C@H]3C[C@H](Oc4cccc5scnc45)C3)C2)nc1 [Example 39, (trans)-3-(Benzo[d]thiazol-4-yloxy)-N-(1-(5-methylpyrimidin-2-yl)azetidin-3-yl)cyclobutanecarboxamide]	10 to 79.4
COc1ccc(F)cc1O[C@H]1C[C@H](C(=O)NC2CC(=O)Nc3ccccc32)C1 (mixture of isomers) [Example 153, Racemic (trans)-3-(5-Fluoro-2-methoxyphenoxy)-N-(2-oxo-1,2,3,4-tetrahydroquinolin-4-yl)cyclobutanecarboxamide]	10 to 79.4
CC(C)(O)[C@H]1CC[C@H](NC(=O)[C@H]2C[C@H](Nc3cccc4cccnc34)C2)CC1 [Example 222, (trans)-N-((trans)-4-(2-Hydroxypropan-2-yl)cyclohexyl)-3-(quinolin-8-ylamino)cyclobutanecarboxamide]	100 to 1000

Structure (SMILES)	IC50 [nM]
Cc1ccc(N2CC(NC(=O)[C@H]3C[C@H](Oc4cccc5scnc45)C3)C2)nc1 [Example 239, (trans)-3-(Benzo[d]thiazol-4-yloxy)-N-(1-(5-methylpyridin-2-yl)azetidin-3-yl)cyclobutanecarboxamide]	10 to 79.4
O=C(N[C@H]1CC[C@H](N[C@@H](CO)C(F)(F)F)CC1)[C@H]1C[C@H](Oc2cc(F)ccc2OC(F)F)C1 [Example 20, (trans)-3-(2-(Difluoromethoxy)-5-fluorophenoxy)-N-((trans)-4-(((S)-1,1,1-trifluoro-3-hydroxypropan-2-yl)amino)cyclohexyl)cyclobutanecarboxamide]	10 to 79.4
COc1ccc(F)cc1O[C@H]1C[C@H](C(=O)Nc2cccc(C#N)n2)C1 [Example 159, (trans)-N-(6-Cyanopyridin-2-yl)-3-(5-fluoro-2-methoxyphenoxy)cyclobutanecarboxamide]	10 to 79.4
CC(C)c1nnc(NC(=O)N2CC(Oc3cccc4scnc34)C2)o1 [Example 328, 3-(Benzo[d]thiazol-4-yloxy)-N-(5-isopropyl-1,3,4-oxadiazol-2-yl)azetidine-1-carboxamide]	100 to 1000
O=C(N[C@H]1CC[C@H](N2CC(F)(F)C2)CC1)[C@H]1C[C@H](Oc2cc(F)ccc2OC(F)F)C1 [Example 19, (trans)-N-((trans)-4-(3,3-Difluoroazetidin-1-yl)cyclohexyl)-3-(2-(difluoromethoxy)-5-fluorophenoxy)cyclobutanecarboxamide]	10 to 79.4
CC(N[C@H]1CC[C@H](NC(=O)N2CC(Oc3cc(F)cc4scnc34)C2)CC1)C(F)F (mixture of isomers) [Example 142, Racemic N-((trans)-4-((1,1-Difluoropropan-2-yl)amino)cyclohexyl)-3-((6-fluorobenzo[d]thiazol-4-yl)oxy)azetidine-1-carboxamide]	10 to 79.4
CC(C)(O)[C@H]1CC[C@H](NC(=O)[C@H]2C[C@H](Oc3cccc(F)c3)C2)CC1 [Example 289, (trans)-3-(3-Fluorophenoxy)-N-((trans)-4-(2-hydroxypropan-2-yl)cyclohexyl)cyclobutanecarboxamide]	100 to 1000
O=C(NC1CN(c2ccnc(Cl)n2)C1)N1CC(Oc2cccc3scnc23)C1 [Example 60, 3-(Benzo[d]thiazol-4-yloxy)-N-(1-(2-chloropyrimidin-4-yl)azetidin-3-yl)azetidine-1-carboxamide]	10 to 79.4
CC(C)(O)[C@H]1CC[C@H](NC(=O)[C@H]2C[C@H](Oc3cc(F)cc(F)c3)C2)CC1 [Example 283, (trans)-3-(3,5-Difluorophenoxy)-N-((trans)-4-(2-hydroxypropan-2-yl)cyclohexyl)cyclobutanecarboxamide]	100 to 1000
COc1ccc(F)cc1O[C@H]1C[C@H](C(=O)Nc2nnc(C)s2)C1 [Example 166, (trans)-3-(5-Fluoro-2-methoxyphenoxy)-N-(5-methyl-1,3,4-thiadiazol-2-yl)cyclobutanecarboxamide]	10 to 79.4
O=C(Nc1nc(C2CC2)co1)[C@H]1C[C@H](Oc2cccc3cccnc23)C1 [Example 178, (trans)-N-(4-Cyclopropyloxazol-2-yl)-3-(quinolin-8-yloxy)cyclobutanecarboxamide]	10 to 79.4
CC1(NC(=O)[C@H]2C[C@H](Oc3cc(F)cc4scnc34)C2)CN(c2cccnn2)C1 [Example 237, (trans)-3-((6-Fluorobenzo[d]thiazol-4-yl)oxy)-N-(3-methyl-1-(pyridazin-3-yl)azetidin-3-yl)cyclobutanecarboxamide]	100 to 1000
CC(=O)c1cnc(NC(=O)[C@H]2C[C@H](Oc3cccc4cccnc34)C2)s1 [Example 202, (trans)-N-(5-Acetylthiazol-2-yl)-3-(quinolin-8-yloxy)cyclobutanecarboxamide]	10 to 79.4
CC1(NC(=O)N2CC(Oc3cccc4scnc34)C2)CN(c2ncccn2)C1 [Example 251]	100 to 1000
CC(C)(C)OC(=O)N[C@H]1C[C@H](NC(=O)[C@H]2C[C@H](Oc3cccc4scnc34)C2)C1 [Example 66, tert-butyl ((trans)-3-((trans)-3-(benzo[d]thiazol-4-yloxy)cyclobutanecarboxamido)cyclobutyl)carbamate]	100 to 1000
O=C(Nc1nccs1)[C@H]1C[C@H](Oc2cccc3cccnc23)C1 [Example 184, trans-3-(8-Quinolinyloxy)-N-1,3-thiazol-2-ylcyclobutanecarboxamide]	< 10
CCn1nnnc1NC(=O)N1CC(Oc2cccc3scnc23)C1 [Example 325, 3-(Benzo[d]thiazol-4-yloxy)-N-(1-ethyl-1H-tetrazol-5-yl)azetidine-1-carboxamide]	100 to 1000
